Measured values taken from ChEMBL document CHEMBL5604061, “ASAP - WNV NS2B-NS3 protease fluorescence dose response” (2024).
Values joined by “and” are separate entries in the source; they are usually repeats but may differ in a detail not shown here. Equal entries are not always repeated.

Biological target: T1, NS3 (West Nile virus, UniProt K4FQI5)
T1 sequence (K4FQI5 whole entry): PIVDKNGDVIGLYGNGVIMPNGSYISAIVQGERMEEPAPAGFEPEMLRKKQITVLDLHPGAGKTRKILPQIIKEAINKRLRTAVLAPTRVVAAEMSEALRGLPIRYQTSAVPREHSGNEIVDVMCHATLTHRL
Assay: Functional biochemical assay to identify treatments for viral infectious disease that targets West Nile NS2B-NS3 protease. Utilizing a direct enzyme activity measurement method, reading the fluorescence intensity is used to characterize the relative potency of inhibitors as IC50.
Parameters: species or system NY-99

O=C(Nc1ccc2c(c1)CNC2)c1cccc2sccc12
IC50: 13.8 µM

C=Cc1cc2c(cc1NC(=O)c1cc(F)cc3[nH]ncc13)CNC2
IC50: 0.489 µM

CC(C)CNC(=O)c1cc(Cl)c(F)cc1NS(=O)(=O)c1ccc(Oc2ccccc2Cl)cc1
IC50: 24.9 µM

Cc1ccc2cc(Cl)cc(C(=O)Nc3ccc4c(c3)CNC4)c2n1
IC50: > 99.5 µM

CC(C)NC(=O)[C@H](Nc1ccc2c(c1)CN(C)C2)c1cc(Cl)cc2[nH]ncc12
IC50: 1.67 µM

CCOCC1(c2nc3c(C(=O)Nc4ccc5c(c4)CNC5)cc(Cl)cc3[nH]2)CC1
IC50: > 99.5 µM

Nc1noc2cccc(C(=O)Nc3ccc4c(c3)CNC4)c12
IC50: 76.8 µM

N#Cc1cc2c(cc1NC(=O)c1cc(F)cc3[nH]ncc13)CNC2
IC50: 0.242 µM

C#Cc1cc(Cl)cc(C(=O)Nc2ccc3c(c2)CNC3)c1
IC50: 58.6 µM

COc1ccc(S(=O)(=O)n2nc(OC(=O)c3cccc(-c4ccccc4Cl)c3)cc2N)cc1
IC50: 1.09 µM

O=C(NCC(F)F)[C@H](Nc1ccc2c(c1)CNC2)c1cc(Cl)ccc1Sc1ccccc1
IC50: 9.51 µM

COc1cc(C#N)cc([C@H](Nc2ccc3c(c2)CNC3)C(=O)NCC(F)F)c1
IC50: 0.243 µM

O=C(Nc1ccc2c(c1)CNC2)c1cncc2[nH]ncc12
IC50: 20.8 µM

CCNC(=O)Nc1cc(Cl)cc(C(=O)Nc2cccc(CN)c2)c1
IC50: 21.6 µM

CC(C)CNC(=O)[C@H](Nc1ccc2c(c1)CNC2)c1cc(Cl)cc2[nH]ncc12
IC50: 0.643 µM

O=C(Nc1ccc2c(c1)CNC2)c1cccc2[nH]ncc12
IC50: 4.33 µM

CCOc1cccc(-c2ccc(S(=O)(=O)Nc3ccc(Cl)cc3C(=O)O)cc2)c1
IC50: 12.6 µM

CCNC(=O)Nc1cc(Cl)cc(C(=O)Nc2ccc3c(c2)CNCCO3)c1
IC50: 15.5 µM

O=C(Nc1ccc2c(c1)CNC2)c1cccc2[nH]ccc12
IC50: 8.63 µM

NCc1cccc(NC(=O)[C@@H](NC(=O)OCc2ccccc2)c2ccc(OCc3ccccc3)cc2)c1
IC50: 6.97 µM

Cc1cccc(-c2nc3c(C(=O)Nc4ccc5c(c4)CNC5)cc(Cl)cc3[nH]2)c1O
IC50: 17.4 µM

CNC(=O)[C@H](Nc1cccc(CN)c1)c1cc(Cl)cc(NC(=O)OCc2ccccc2)c1
IC50: 1.88 µM

Cn1cc2c(C(=O)Nc3ccc4c(c3)CNC4)cc(Cl)cc2n1
IC50: 15.1 µM

C=CC[C@H]1NCc2cc(NC(=O)c3cc(F)cc4[nH]ncc34)ccc21
IC50: 4.14 µM

O=C(Nc1ccc2c(c1)CNC2)c1cc(F)cc(-c2cnc(C3CC3)s2)c1
IC50: 1.99 µM

N#Cc1cc(Cl)cc(C(=O)Nc2ccc3c(c2)CNC3)c1
IC50: 54.9 µM

C[C@]1(O)C(=O)Nc2cc(F)cc(C(=O)Nc3ccc4c(c3)CNC4)c21
IC50: 5.58 µM

O=C(NC1CCOCC1)[C@H](Nc1ccc2c(c1)CNC2)c1cc(Cl)cc(C2CC2)c1
IC50: 0.186 µM

Cc1ccc(S(=O)(=O)CNC(=O)[C@H](Nc2ccc3c(c2)CNC3)c2cc(Cl)cc3[nH]ncc23)cc1
IC50: 11.7 µM

CCc1cc(C(=O)Nc2cccc(-n3nn[nH]c3=O)c2)sc1-c1ccc(Cl)cc1
IC50: 20.1 µM

O=C(Nc1ccc2c(c1)CNC2)c1cc(F)cc2[nH]c(-c3ccccc3F)nc12
IC50: 2.39 µM

COCCCNC(=O)[C@H](Nc1ccc2c(c1)CNC2)c1cc(Cl)cc(C2CC2)c1
IC50: 0.583 µM

O=C(Nc1cc(Cl)cc(C(=O)Nc2ccc3c(c2)CCNC3)c1)OCc1ccccc1
IC50: 49.5 µM

CC(C)c1cc(Br)cc(C(=O)Nc2ccc3c(c2)CNC3)c1
IC50: 93.2 µM

Cc1[nH]c2ccccc2c1CN1CCC(c2c[nH]c3ncccc23)CC1
IC50: > 99.5 µM

O=C(Nc1ccc2c(c1)CNC2)c1cc(Cl)cc2[nH]c(-c3ccc(F)cc3O)nc12
IC50: > 99.5 µM

CN1C(=O)CC[C@H]1c1nc2c(C(=O)Nc3ccc4c(c3)CNC4)cc(F)cc2[nH]1
IC50: 14.1 µM

O=C(Nc1ccc2c(c1)B(O)OC2)c1cccc(OCc2c(Cl)cccc2Cl)c1
IC50: > 99.5 µM

O=C(NCCCn1ccnc1)[C@H](Nc1ccc2c(c1)CNC2)c1cc(Cl)cc(C2CC2)c1
IC50: 0.839 µM

CCCCCC(=O)N[C@H](C(=O)N1CCCCC1)c1ccc(OCc2ccccc2)cc1
IC50: > 99.5 µM

NCc1cccc([C@H]2C[C@@H]2c2cc(Cl)cc(NC(=O)OCc3ccccc3)c2)c1
IC50: 18.8 µM

c1ccc2sc(C3CCN(Cc4c[nH]c5ccccc45)CC3)nc2c1
IC50: > 99.5 µM

O=C(Nc1cc(Br)c2c(c1)CNC2)c1cc(F)cc2[nH]ncc12
IC50: 0.915 µM and 0.957 µM

Clc1cc(CNc2ccc3c(c2)CNC3)c2cn[nH]c2c1
IC50: 46.1 µM

O=C(Nc1ccc2c(c1)CN[C@H]2CCO)c1cc(F)cc2[nH]ncc12
IC50: 1.66 µM

O=C(Nc1ccc2c(c1)CNC2)c1cc(F)cc2c1CCC2
IC50: 4.41 µM

O=C(NCCC1CC1)[C@H](Nc1ccc2c(c1)CNC2)c1cc(Cl)cc(C2CC2)c1
IC50: 0.698 µM

O=C(Nc1cc(Cl)cc(C(=O)Nc2ccc3c(c2)CNC3)c1)OCc1ccccc1
IC50: 17.7 µM and 48.4 µM and 25.2 µM

Cc1ccccc1-c1nc2c(C(=O)Nc3ccc4c(c3)CNC4)cc(F)cc2[nH]1
IC50: 8.51 µM

O=C(Nc1ccc2c(c1)CNC2)c1cccc(-c2cnco2)c1
IC50: 38.4 µM

CC(C)n1cc2c(C(=O)Nc3ccc4c(c3)CNC4)cc(Cl)cc2n1
IC50: 1.73 µM

NCc1cccc(NC(=O)C[C@@H](NC(=O)OCc2ccccc2)c2ccc(OCc3ccccc3)cc2)c1
IC50: 6.15 µM

CCOC(=O)[C@H](Nc1ccc2c(c1)CNC2)c1cc(Cl)cc(C2CC2)c1
IC50: 0.845 µM

O=C(Nc1ccc2c(c1)CNC2)c1cc(Cl)cc2cc[nH]c12
IC50: 16.3 µM

CCOCC1(c2nc3c(C(=O)Nc4ccc5c(c4)CNC5)cc(F)cc3[nH]2)CC1
IC50: 9.95 µM

CCc1cnccc1-c1nc2c(C(=O)Nc3ccc4c(c3)CNC4)cc(Cl)cc2[nH]1
IC50: > 99.5 µM

CCCCNC(=O)[C@H](Nc1ccc2c(c1)CNC2)c1cc(Cl)cc(C2CC2)c1
IC50: 0.295 µM

CNC(=O)[C@H](Nc1ccc2c(c1)CNC2)c1cc(Cl)cc2[nH]c(-c3ccccc3)nc12
IC50: 0.281 µM

O=C1Cc2c(cc(F)cc2C(=O)Nc2ccc3c(c2)CNC3)N1
IC50: 0.537 µM and 0.576 µM

O=C(Nc1ccc2c(c1)CNC2)c1cccc2cn[nH]c12
IC50: 9.75 µM

COc1cc(Cl)cc(C(=O)Nc2ccc3c(c2)CNC3)c1
IC50: 40.7 µM

O=C(Nc1ccc2c(c1)CNC2)c1cccc2ccncc12
IC50: 11.4 µM

O=C(O)c1cc(Cl)ccc1NS(=O)(=O)c1ccc(-c2ccc(F)cc2)cc1
IC50: 29.5 µM

CNC(=O)c1cccc(C(=O)Nc2ccc3c(c2)CNC3)c1
IC50: 36.8 µM

NCc1cccc(NC(=O)C[C@H](NC(=O)OCc2ccccc2)c2ccc(OCc3ccccc3)c(Br)c2)c1
IC50: 8.65 µM

O=C(Nc1ccc2c(c1)CN[C@H]2[C@H](O)CO)c1cc(F)cc2[nH]ncc12
IC50: 6.73 µM

O=C(Nc1ccc2c(c1)CNC2)c1cc(Cl)cc2c1CCC2
IC50: 22.7 µM

NCc1cccc(NC(=O)c2cc(Cl)cc(NC(=O)OCc3ccccc3)c2)c1
IC50: 22.9 µM

O=C(Nc1ccc2c(c1)CNC2)c1cc(F)cc(/C=C/c2ccccc2)c1
IC50: 2.91 µM

O=C(NCC(F)F)[C@H](Nc1ccc2c(c1)CNC2)c1cccc(Cl)c1
IC50: 0.477 µM

Nc1cc(Cl)cc(C(=O)Nc2ccc3c(c2)CNC3)c1N
IC50: 33.3 µM

CC(=O)Nc1cccc(C(=O)Nc2ccc3c(c2)CNC3)c1
IC50: 30.6 µM

Cn1ccc(-c2cc(F)cc(C(=O)Nc3ccc4c(c3)CNC4)c2)cc1=O
IC50: 2.23 µM

CCCCCC(=O)N[C@H](C(=O)Nc1ccc2[nH]ncc2c1)c1ccc(OCc2ccccc2)cc1
IC50: > 99.5 µM

N#CCCNC(=O)[C@H](Nc1ccc2c(c1)CNC2)c1cc(Cl)cc(C2CC2)c1
IC50: 0.43 µM

CC(C)(C)c1nc2c(C(=O)Nc3ccc4c(c3)CNC4)cc(Br)cc2[nH]1
IC50: > 99.5 µM

O=C(Nc1ccc2c(c1)CNC2)c1cc(Cl)cc2[nH]ncc12
IC50: 3.09 µM

NCCc1cccc(NC(=O)c2cc(Cl)cc(NC(=O)OCc3ccccc3)c2)c1
IC50: 23.6 µM

O=C(Nc1ccc2c(c1)CNC2)c1cc(Cl)cc2c1cnn2C1CCC1
IC50: 1.7 µM

O=C(O)c1cc(Oc2ccc(F)cc2)c(F)cc1NS(=O)(=O)c1ccc(Oc2ccccc2Cl)cc1
IC50: 3.39 µM

Cn1ncc2c(C(=O)Nc3ccc4c(c3)CNC4)cc(Br)cc21
IC50: 47.2 µM

CC(C)(C)c1cc(Br)cc(C(=O)Nc2ccc3c(c2)CNC3)c1
IC50: 88.2 µM

O=C(Nc1ccc2c(c1)CN[C@H]2CO)c1cc(F)cc2[nH]ncc12
IC50: 4.53 µM

CCCNC(=O)[C@H](Nc1ccc2c(c1)CNC2)c1cc(Cl)cc2[nH]ncc12
IC50: 0.356 µM

O=C(Nc1ccc2c(c1)CNC2)c1cc(F)cc(-c2ccncc2)c1
IC50: 3.65 µM

CNC(=O)[C@H](Nc1ccc2c(c1)CNC2)c1cc(Cl)cc2[nH]ncc12
IC50: 0.677 µM

O=C(Nc1ccc2c(c1)CNC2)c1cc(Cl)cc(N2CCCC2=O)c1
IC50: 24.8 µM

O=C1Cc2c(cccc2C(=O)Nc2ccc3c(c2)CNC3)N1
IC50: 6.16 µM

O=C(O)c1ccc(-c2cc(NC(=O)c3cc(F)cc4[nH]ncc34)cc3c2CNC3)cc1
IC50: 1.15 µM

COc1cc(Cc2c(-c3ccc(F)cc3)noc2C)nc(N2CCNCC2)n1
IC50: 67.3 µM

O=C(Nc1ccc2c(c1)CNC2)c1cc(F)cc(-c2cn[nH]c2)c1
IC50: 0.691 µM

N#C[C@H](Nc1ccc2c(c1)CNC2)c1cc(Cl)cc2[nH]ncc12
IC50: 20 µM

NCCc1csc2cc(C(=O)Nc3ccc4c(c3)CNC4)ccc12
IC50: 2.09 µM

O=C(Nc1ccc2c(c1)CNC2)c1cc(F)c2[nH]ccc2c1
IC50: 20.1 µM

CC(C)NC(=O)[C@H](Nc1ccc2c(c1)CNC2)c1cc(Cl)cc2[nH]ncc12
IC50: 0.386 µM and 0.292 µM and 0.336 µM

O=C(Nc1ccccc1)Oc1ccccc1 [PHENYL PHENYLCARBAMATE]
IC50: > 100 µM

OCC#C[C@H](Nc1ccc2c(c1)CNC2)c1cc(Cl)cc2[nH]ncc12
IC50: 22.4 µM

O=C(Nc1ccc2c(c1)CN[C@H]2C[C@H](O)CO)c1cc(F)cc2[nH]ncc12
IC50: 2.41 µM

N=C(N)Nc1ccc(NC(=O)Oc2ccccc2)cc1
IC50: > 100 µM

O=C(Nc1ccc2c(c1)CNC2)c1cc(F)cc2[nH]c(-c3cccc(F)c3)nc12
IC50: 7.29 µM

O=C(Nc1ccc2c(c1)CNC2)c1cc(F)cc(C2=CCOCC2)c1
IC50: 9.32 µM

O=C(NCC(F)F)[C@H](Nc1ccc2c(c1)CNC2)c1cc(F)cc2[nH]ncc12
IC50: 0.247 µM

CSCCNC(=O)[C@H](Nc1ccc2c(c1)CNC2)c1cc(Cl)cc(C2CC2)c1
IC50: 0.514 µM
